# Patent US8058306B2, “Phenyl pyrrole aminoguanidine derivatives” (Action Pharma A/S, priority 2006, dated 2011)
# “And” between values parts separate entries of the source, which are not always exact repeats. Identical values can stand only once. “Also recorded” adds a separate entry of the source. Like-named read-outs stand apart in the source and are kept apart here.
# Experiment: Plasma kinetics in rat following intravenous and oral administration;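 on AUC0-∞: parameter is AUC from zero to infinity in ng·h/mL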
# Assay type: in vivo, Sprague Dawley rats
# Method: This study determined the intravenous pharmacokinetics and oral bioavailability of compound 1 of the invention (see FIG. 1A, structure no. 1), compound 2 of the invention (see FIG. 1D, structure no. 19) and compound 3 of the invention (see FIG. 1I, structure no. 53) following administration to Sprague Dawley rats at a dose level of 10 mg/kg.
# Six groups of 3 male rats received either a single intravenous or single oral administration of compound 1, 2 or 3 of the invention at a dose level of 10 mg/kg. Blood samples were obtained at various times after dosing. Plasma samples were analysed for unchanged test item using a suitable LC-MS/MS method. Pharmacokinetic parameters were estimated from individual plasma concentrations.
# Eighteen male rats each received either a single intravenous or a single oral administration of either compound 1, 2 or 3 at a dose level of 10 mg/kg. The formulation was orally administered to each animal by gastric gavage and intravenously administered to each animal via a tail vein. The dose was administered at a dose volume of 5 mL/kg. The formulations were administered to each animal according to the details in the following table:
# Blood samples (ca 0.3 mL) were removed from the femoral vein of each animal into tubes containing lithium heparin as anticoagulant.
# Blood samples were collected from 3 rats at the following times after dose administration: • 3, 6, 15, 45 min and 1.5, 2.5, 4, 6, 8, 24 h post dose. Oral Administration
# Blood samples were collected from 3 rats at the following times after dose administration: • 5, 15, 45 min and 1.5, 2.5, 4, 6, 8, 24 h post dose. Processing of Blood Samples
# Pharmacokinetic parameters of compound 1, 2 and 3 were derived by non-compartmental analysis using WinNonLin Pro version 5.0.1 (Pharsight 2005). The following parameters were derived, where appropriate, from the individual plasma concentration versus time profiles:
# • F % The absolute oral bioavailability calculated as [AUC0-t (oral)*Dose(iv)/AUC0-t (iv)*Dose (oral)]*100 based on mean values derived after oral and intravenous administration Consideration was given to the estimation of λz and corresponding t1/2 values. Three or more points are required within the terminal phase for λz and t1/2 to be estimated. The following additional variables were tabulated to aid identification of potentially unreliable estimates of t1/2 and AUC:
# Pharmacokinetic parameters were reported as geometric mean except Tmax which was reported as the median. Geometric coefficient of variation was calculated as: […]
# Actual sampling times were used for all calculations of pharmacokinetic parameters. Plasma concentrations that were below the limit of quantification were taken as zero for the pharmacokinetic analysis.
# [1] = intravenous 10 mg/kg, male rats, individual animals, acetate, 10 mg/kg
# [2] = male, Sprague Dawley, rat, plasma, iv, 10 mg/kg, single intravenous 10 mg/kg, male rats, individual animals, read-out: Sample Concentration in plasma
# [3] = male, Sprague Dawley, rat, plasma, iv, 10 mg/kg, single intravenous 10 mg/kg, male rats, mean of 3, read-out: Mean Concentration in plasma
structure (smiles),measurement,setting,value
"N=C(N)NN=CC=Cc1cccn1-c1ccccc1[N+](=O)[O-] [Compound 2, [1-(2-nitrophenyl)-1H-pyrrol-2-yl-allylideneamino]guanidinium acetate]",bioavailability,"Sprague Dawley, rat, plasma, 10 mg/kg oral vs intravenous, male rats, from mean AUC0-t, read-out: Mean absolute oral bioavailability",3.2%
same,"Between-animal variability in systemic exposure, coefficient of variation (CV) of AUC0-t","intravenous 10 mg/kg, male rats",less than 30%
same,AUC0-∞,[1],1868 ng·h/mL and 2468 ng·h/mL
same,AUC(0-t),[1],1701 ng·h/mL and 2445 ng·h/mL
same,C0,[1],4747 ng/mL and 2637 ng/mL
same,CL,[1],90.45 mL/min/kg and 68.88 mL/min/kg
same,MRT,[1],2.84 h and 4.84 h
same,Vss,[1],15.408 L/kg and 20.008 L/kg
same,t1/2,[1],2.718 h and 3.8896 h
same,Systemic clearance (in words),"intravenous 10 mg/kg, rats",high
same,volume of distribution compared with total body water (in words),"intravenous 10 mg/kg, rats, total body water 668 mL/kg, acetate, 10 mg/kg",exceeded the total body water; also recorded: markedly greater than that of the total body water
same,systemic plasma clearance (CL) compared with hepatic blood flow (in words),"intravenous 10 mg/kg, hepatic blood flow 3312 mL/h/kg",greater than hepatic blood flow
same,AUC(0-inf),"male, Sprague Dawley, rat, plasma, iv, 10 mg/kg, intravenous 10 mg/kg, male rats, Arithmetic Mean",2030 ng·h/mL
same,AUC(0-t),"male, Sprague Dawley, rat, plasma, iv, 10 mg/kg, intravenous 10 mg/kg, male rats, Arithmetic Mean, read-out: AUC0-t",1880 ng·h/mL
same,C0,"male, Sprague Dawley, rat, plasma, iv, 10 mg/kg, intravenous 10 mg/kg, male rats, Arithmetic Mean, read-out: C0",3470 ng/mL
same,clearance,"male, Sprague Dawley, rat, plasma, iv, 10 mg/kg, intravenous 10 mg/kg, male rats, Arithmetic Mean, read-out: CL (converted)",85.5 mL/min/kg
same,MRT,"male, Sprague Dawley, rat, plasma, iv, 10 mg/kg, intravenous 10 mg/kg, male rats, Arithmetic Mean, read-out: MRT",3.74 h
same,Vd,"male, Sprague Dawley, rat, plasma, iv, 10 mg/kg, intravenous 10 mg/kg, male rats, Arithmetic Mean, read-out: Vss",18.7 L/kg
same,half-life,"male, Sprague Dawley, rat, plasma, iv, 10 mg/kg, intravenous 10 mg/kg, male rats, Arithmetic Mean, read-out: t1/2 (converted)",3.29 h
same,AUC(0-inf),"male, Sprague Dawley, rat, plasma, iv, 10 mg/kg, intravenous 10 mg/kg, male rats, Geometric mean",2010 ng·h/mL
same,AUC(0-t),"male, Sprague Dawley, rat, plasma, iv, 10 mg/kg, intravenous 10 mg/kg, male rats, Geometric mean, read-out: AUC0-t",1840 ng·h/mL
same,C0,"male, Sprague Dawley, rat, plasma, iv, 10 mg/kg, intravenous 10 mg/kg, male rats, Geometric mean, read-out: C0",3360 ng/mL
same,clearance,"male, Sprague Dawley, rat, plasma, iv, 10 mg/kg, intravenous 10 mg/kg, male rats, Geometric mean, read-out: CL (systemic plasma clearance) (converted)",84.6 mL/min/kg
same,MRT,"male, Sprague Dawley, rat, plasma, iv, 10 mg/kg, intravenous 10 mg/kg, male rats, Geometric mean, read-out: MRT",3.65 h
same,Vd,"male, Sprague Dawley, rat, plasma, iv, 10 mg/kg, intravenous 10 mg/kg, male rats, Geometric mean, read-out: Vss (mean apparent volume of distribution)",18.5 L/kg
same,half-life,"male, Sprague Dawley, rat, plasma, iv, 10 mg/kg, intravenous 10 mg/kg, male rats, Geometric mean, read-out: t1/2 (mean apparent terminal half-life) (converted)",3.25 h
same,AUC(0-inf),"male, Sprague Dawley, rat, plasma, iv, 10 mg/kg, intravenous 10 mg/kg, male rats, Median",1870 ng·h/mL
same,AUC(0-t),"male, Sprague Dawley, rat, plasma, iv, 10 mg/kg, intravenous 10 mg/kg, male rats, Median, read-out: AUC0-t",1700 ng·h/mL
same,C0,"male, Sprague Dawley, rat, plasma, iv, 10 mg/kg, intravenous 10 mg/kg, male rats, Median, read-out: C0",3020 ng/mL
same,clearance,"male, Sprague Dawley, rat, plasma, iv, 10 mg/kg, intravenous 10 mg/kg, male rats, Median, read-out: CL (converted)",90.5 mL/min/kg
same,MRT,"male, Sprague Dawley, rat, plasma, iv, 10 mg/kg, intravenous 10 mg/kg, male rats, Median, read-out: MRT",3.53 h
same,Vd,"male, Sprague Dawley, rat, plasma, iv, 10 mg/kg, intravenous 10 mg/kg, male rats, Median, read-out: Vss",20 L/kg
same,half-life,"male, Sprague Dawley, rat, plasma, iv, 10 mg/kg, intravenous 10 mg/kg, male rats, Median, read-out: t1/2 (converted)",3.25 h
same,AUC(0-inf),"male, Sprague Dawley, rat, plasma, iv, 10 mg/kg, intravenous 10 mg/kg, male rats, individual animals",1750 ng·h/mL
same,AUC(0-t),"male, Sprague Dawley, rat, plasma, iv, 10 mg/kg, intravenous 10 mg/kg, male rats, individual animals, read-out: AUC0-t",1500 ng·h/mL
same,C0,"male, Sprague Dawley, rat, plasma, iv, 10 mg/kg, intravenous 10 mg/kg, male rats, individual animals, read-out: C0",3020 ng/mL
same,clearance,"male, Sprague Dawley, rat, plasma, iv, 10 mg/kg, intravenous 10 mg/kg, male rats, individual animals, read-out: CL (converted)",97.1 mL/min/kg
same,MRT,"male, Sprague Dawley, rat, plasma, iv, 10 mg/kg, intravenous 10 mg/kg, male rats, individual animals, read-out: MRT",3.53 h
same,Vd,"male, Sprague Dawley, rat, plasma, iv, 10 mg/kg, intravenous 10 mg/kg, male rats, individual animals, read-out: Vss",20.6 L/kg
same,half-life,"male, Sprague Dawley, rat, plasma, iv, 10 mg/kg, intravenous 10 mg/kg, male rats, individual animals, read-out: t1/2 (converted)",3.25 h
same,concentration at 0.05 h,"male, Sprague Dawley, rat, plasma, iv, 10 mg/kg, single intravenous 10 mg/kg, male rats, 0.05 h (3 min), mean of 3, read-out: Mean Concentration in plasma",2350 ng/mL
same,concentration at 0.05 h,"male, Sprague Dawley, rat, plasma, iv, 10 mg/kg, single intravenous 10 mg/kg, male rats, 0.05 h, individual animals, read-out: Sample Concentration in plasma",1640 ng/mL
same,concentration at 0.1 h,[2],1590 ng/mL
same,concentration at 0.1 h,[3],1340 ng/mL
same,concentration at 0.25 h,[2],847 ng/mL
same,concentration at 0.25 h,[3],724 ng/mL
same,concentration at 0.75 h,[2],264 ng/mL
same,concentration at 0.75 h,[3],278 ng/mL
same,concentration at 1.5 h,[2],250 ng/mL
same,concentration at 1.5 h,[3],217 ng/mL
same,concentration at 2.5 h,[2],195 ng/mL
same,concentration at 2.5 h,[3],191 ng/mL
same,concentration at 4 h,[2],122 ng/mL
same,concentration at 4 h,[3],132 ng/mL
same,concentration at 6 h,[2],83.9 ng/mL
same,concentration at 6 h,[3],86 ng/mL
same,concentration at 8 h,"male, Sprague Dawley, rat, plasma, iv, 10 mg/kg, single intravenous 10 mg/kg, male rats, 8 h, mean, read-out: Mean Concentration in plasma",65.1 ng/mL
